US11254663B2 (BRISTOL-MYERS SQUIBB COMPANY, priority 2019, dated 2022)

target: FXR (Homo sapiens (Human), UniProt Q96RI1); experiment: transient human FXR/Gal4-luciferase reporter assay; assay type: cell-based; conditions: not given
How it was run: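 HEK293 cells stably carrying a 5×Gal4 response element–firefly luciferase reporter were transiently transfected overnight with a Gal4 DBD–human FXR LBD fusion plasmid. Compound was added in DMSO and cells were incubated overnight at 37 °C, 5% CO2. Activity was read as Steady-Glo luminescence.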

Sequence of FXR (Q96RI1 262-486): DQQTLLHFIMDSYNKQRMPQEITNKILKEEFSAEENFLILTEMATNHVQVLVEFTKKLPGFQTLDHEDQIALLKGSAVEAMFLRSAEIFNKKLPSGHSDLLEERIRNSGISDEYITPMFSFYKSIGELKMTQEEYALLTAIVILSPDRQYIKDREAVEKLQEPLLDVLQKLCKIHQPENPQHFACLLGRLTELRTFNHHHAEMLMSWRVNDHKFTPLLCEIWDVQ

Q: With `CS(=O)(=O)Nc1ccc(-c2cccc(N(CC34CCC(c5noc(C6(C(F)(F)F)CC6)n5)(CC3)CC4)C(=O)C34CC(F)(C3)C4)c2)cc1` [Example 523, 3-fluoro-N-(4′-(methylsulfonamido)-[1,1′-biphenyl]-3-yl)-N-((4-(5-(1-(trifluoromethyl)cyclopropyl)-1,2,4-oxadiazol-3-yl)bicyclo[2.2.2]octan-1-yl)methyl)bicyclo[1.1.1]pentane-1-carboxamide] as the compound, how does the EC50 read?
A: 189 nM

Q: How did the EC50 turn out when `CCOc1ncc(-c2cccc(N(CC34CCC(c5nc(C(C)(C)C)no5)(CC3)CC4)C(=O)C3(C)COC3)c2)cn1` [Example 503, N-((4-(3-(tert-butyl)-1,2,4-oxadiazol-5-yl)bicyclo[2.2.2]octan-1-yl)methyl)-N-(3-(2-ethoxypyrimidin-5-yl)phenyl)-3-methyloxetane-3-carboxamide] was run?
A: 1580 nM

Q: For `O=C(C1CC(F)(F)C1)N(CC12CCC(c3nc(C4CC4)no3)(CC1)CC2)c1cccc(-c2nc3cc(F)ccc3o2)c1` [Example 560, N-((4-(3-cyclopropyl-1,2,4-oxadiazol-5-yl)bicyclo[2.2.2]octan-1-yl)methyl)-3,3-difluoro-N-(3-(5-fluorobenzo[d]oxazol-2-yl)phenyl)cyclobutane-1-carboxamide], which EC50 is on record?
A: 1510 nM

Q: How did the EC50 turn out when `CCOc1ccc(-c2cccc(N(CC34CCC(c5ccc(C(F)(F)F)cn5)(CC3)CC4)C(=O)C34CC(F)(C3)C4)c2)cn1` [Example 492, N-(3-(6-ethoxypyridin-3-yl)phenyl)-3-fluoro-N-((4-(5-(trifluoromethyl)pyridin-2-yl)bicyclo[2.2.2]octan-1-yl)methyl)bicyclo[1.1.1]pentane-1-carboxamide] was run?
A: 567 nM

Q: How did the EC50 turn out when `Cc1nc2ccc(-c3cncc(N(CC45CCC(c6noc(C(C)(C)C)n6)(CC4)CC5)C(=O)C45CC(F)(C4)C5)c3)cc2s1` [Example 484, N-((4-(5-(tert-butyl)-1,2,4-oxadiazol-3-yl)bicyclo[2.2.2]octan-1-yl)methyl)-3-fluoro-N-(5-(2-methylbenzo[d]thiazol-6-yl)pyridin-3-yl)bicyclo[1.1.1]pentane-1-carboxamide] was run?
A: 344 nM

Q: `CCOc1ccc(-c2ccnc(N(CC34CCC(c5noc(C(C)(C)C)n5)(CC3)CC4)C(=O)C34CC(F)(C3)C4)c2)cc1` [Example 532, N-((4-(5-(tert-butyl)-1,2,4-oxadiazol-3-yl)bicyclo[2.2.2]octan-1-yl)methyl)-N-(4-(4-ethoxyphenyl)pyridin-2-yl)-3-fluorobicyclo[1.1.1]pentane-1-carboxamide] was tested. Which EC50 did it give?
A: 86 nM

Q: For `CCOc1ncc(-c2cccc(N(CC34CCC(c5noc(C(C)(C)C)n5)(CC3)CC4)C(=O)C3(C)COC3)c2)cn1` [Example 510, N-((4-(5-(tert-butyl)-1,2,4-oxadiazol-3-yl)bicyclo[2.2.2]octan-1-yl)methyl)-N-(3-(2-ethoxypyrimidin-5-yl)phenyl)-3-methyloxetane-3-carboxamide], which EC50 is on record?
A: 974 nM

Q: For `COc1cnc(-c2cccc(N(CC34CCC(c5ccc(C(F)(F)F)cn5)(CC3)CC4)C(=O)C34CC(F)(C3)C4)c2)nc1` [Example 500, 3-fluoro-N-(3-(5-methoxypyrimidin-2-yl)phenyl)-N-((4-(5-(trifluoromethyl)pyridin-2-yl)bicyclo[2.2.2]octan-1-yl)methyl)bicyclo[1.1.1]pentane-1-carboxamide], which EC50 is on record?
A: 810 nM

same assay, conditions: Gal4-hFXR fusion construct, HEK293 reporter cells; response relative to 8 μM GW-4064

Q: `CC(C)(O)c1ccc(-c2cccc(N(CC34CCC(c5noc(C(C)(C)F)n5)(CC3)CC4)C(=O)NC3CCC(O)(C(F)(F)F)CC3)c2)cc1` (single isomer, unassigned) [Example 600, 1-((4-(5-(2-fluoropropan-2-yl)-1,2,4-oxadiazol-3-yl)bicyclo[2.2.2]octan-1-yl)methyl)-3-(4-hydroxy-4-(trifluoromethyl)cyclohexyl)-1-(4′-(2-hydroxypropan-2-yl)-[1,1′-biphenyl]-3-yl) urea] was tested. Which EC50 did it give?
A: 16 nM

Q: For `COc1ccc(-c2cccc(N(CC34CCC(c5nc(C6CC6)no5)(CC3)CC4)C(=O)C34CC(F)(C3)C4)c2)cn1` [Example 249, N-((4-(3-cyclopropyl-1,2,4-oxadiazol-5-yl)bicyclo[2.2.2]octan-1-yl)methyl)-3-fluoro-N-(3-(6-methoxypyridin-3-yl)phenyl)bicyclo[1.1.1]pentane-1-carboxamide], which EC50 is on record?
A: 153 nM

Q: How did the EC50 turn out when `CC1(c2nc(C34CCC(CN(C(=O)C56CC(F)(C5)C6)c5cccc(-c6cnc(C7CC7)nc6)c5)(CC3)CC4)no2)CC1` [Example 403, N-(3-(2-cyclopropylpyrimidin-5-yl)phenyl)-3-fluoro-N-((4-(5-(1-methylcyclopropyl)-1,2,4-oxadiazol-3-yl)bicyclo[2.2.2]octan-1-yl)methyl)bicyclo[1.1.1]pentane-1-carboxamide] was run?
A: 100 nM

Q: `N#Cc1cnn2c(-c3cccc(N(CC45CCC(c6nc(C7CC7)no6)(CC4)CC5)C(=O)C45CC(F)(C4)C5)c3)cnc2c1` [Example 314, N-(3-(7-cyanoimidazo[1,2-b]pyridazin-3-yl)phenyl)-N-((4-(3-cyclopropyl-1,2,4-oxadiazol-5-yl)bicyclo[2.2.2]octan-1-yl)methyl)-3-fluorobicyclo[1.1.1]pentane-1-carboxamide] was tested. Which EC50 did it give?
A: 504 nM

Q: For `CC(F)(F)c1nc(C23CCC(CN(C(=O)C4CC(O)(C(F)(F)F)C4)c4cccc(-c5ccc(C(O)C(F)F)cc5)c4)(CC2)CC3)no1` (single isomer, unassigned) [Example 628 (first eluting isomer)], which EC50 is on record?
A: 92 nM

Q: `CCOc1cnc(-c2cccc(N(CC34CCC(c5nc(C(C)C)no5)(CC3)CC4)C(=O)C34CC(F)(C3)C4)c2)nc1` [Example 395, N-(3-(5-ethoxypyrimidin-2-yl)phenyl)-3-fluoro-N-((4-(3-isopropyl-1,2,4-oxadiazol-5-yl)bicyclo[2.2.2]octan-1-yl)methyl)bicyclo[1.1.1]pentane-1-carboxamide] was tested. Which EC50 did it give?
A: 156 nM

Q: How did the EC50 turn out when `Cc1nc2ncc(-c3cccc(N(CC45CCC(c6noc(C(C)(C)C)n6)(CC4)CC5)C(=O)C45CC(F)(C4)C5)c3)cc2s1` [Example 449, N-((4-(5-(tert-butyl)-1,2,4-oxadiazol-3-yl)bicyclo[2.2.2]octan-1-yl)methyl)-3-fluoro-N-(3-(2-methylthiazolo[4,5-b]pyridin-6-yl)phenyl)bicyclo[1.1.1]pentane-1-carboxamide] was run?
A: 98 nM

Q: With `COc1cc(-c2cccc(N(CC34CCC(c5nc(C6CC6)no5)(CC3)OC4)C(=O)C34CC(F)(C3)C4)c2)ccn1` [Example 339, N-((1-(3-cyclopropyl-1,2,4-oxadiazol-5-yl)-2-oxabicyclo[2.2.2]octan-4-yl)methyl)-3-fluoro-N-(3-(2-methoxypyridin-4-yl)phenyl)bicyclo[1.1.1]pentane-1-carboxamide] as the compound, how does the EC50 read?
A: 378 nM

Q: `CCOc1ccc(-c2cccc(N(CC34CCC(c5noc(C6(C)CC6)n5)(CC3)CC4)C(=O)C34CC(F)(C3)C4)c2)cc1` [Example 399, N-(4′-ethoxy-[1,1′-biphenyl]-3-yl)-3-fluoro-N-((4-(5-(1-methylcyclopropyl)-1,2,4-oxadiazol-3-yl)bicyclo[2.2.2]octan-1-yl)methyl)bicyclo[1.1.1]pentane-1-carboxamide] was tested. Which EC50 did it give?
A: 58 nM

Q: `CCOc1ncc(-c2cccc(N(CC34CCC(c5noc(C6(C)COC6)n5)(CC3)CC4)C(=O)[C@H]3C[C@@H](OC)C3)c2)cn1` [Example 518, (cis)-N-(3-(2-ethoxypyrimidin-5-yl)phenyl)-3-methoxy-N-((4-(5-(3-methyloxetan-3-yl)-1,2,4-oxadiazol-3-yl)bicyclo[2.2.2]octan-1-yl)methyl)cyclobutane-1-carboxamide] was tested. Which EC50 did it give?
A: 1290 nM
